Molecules are shown by their SMILES.

The target of one assay is Recombinant human factor D (Homo sapiens (Human), UniProt P00746). Nature of the assay: biochemical. Format: biochemical. Conditions: Factor D inhibition data using Method 1; substrate Z-Lys-thiobenzyl, fluorescence readout; read-out: IC50.
Recombinant human factor D, sequence (P00746 26-253): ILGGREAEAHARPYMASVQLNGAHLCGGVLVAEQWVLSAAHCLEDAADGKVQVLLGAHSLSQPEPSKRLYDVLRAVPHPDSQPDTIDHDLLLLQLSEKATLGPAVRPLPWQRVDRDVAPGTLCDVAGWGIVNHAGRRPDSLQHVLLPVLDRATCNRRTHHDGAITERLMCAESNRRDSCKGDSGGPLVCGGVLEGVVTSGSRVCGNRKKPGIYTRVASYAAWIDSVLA
Experimental: Human Complement Factor D Assay: Method 1
Recombinant human factor D (expressed in E. coli and purified using standard methods) at 10 nM concentration is incubated with test compound at various concentrations for 1 hour at room temperature in 0.1 M Hepes buffer, pH 7.5, containing 1 mM MgCl2, 1 M NaCl and 0.05% CHAPS. […] IC50 values are calculated from percentage of inhibition of complement factor D-activity as a function of test compound concentration.
Broadly, the IC50 is the midpoint of a concentration-inhibition curve. Regarding `CC[C@@H]1CCC[C@H](NC(=O)[C@@H]2C[C@H]3C[C@H]3N2C(=O)Cn2nc(C(N)=O)c3ccncc32)C1` [Example 72, 1-{2-[(1R,3S,5R)-3-((1S,3R)-3-Ethyl-cyclohexylcarbamoyl)-2-aza-bicyclo[3.1.0]hex-2-yl]-2-oxo-ethyl}-1H-pyrazolo[3,4-c]pyridine-3-carboxylic acid amide], the IC50 was found to be 1.7 µM.
With `CC[C@H]1CCC[C@@H](NC(=O)[C@@H]2C[C@H]3C[C@H]3N2C(=O)Cn2nc(C(N)=O)c3ccncc32)C1` [Example 73, 1-{2-[(1R,3S,5R)-3-((1R,3S)-3-ethyl-cyclohexylcarbamoyl)-2-aza-bicyclo[3.1.0]hex-2-yl]-2-oxo-ethyl}-1H-pyrazolo[3,4-c]pyridine-3-carboxylic acid amide], the IC50 turned out to be 0.029 µM.
Same read-out and setting: the result for `CC1(C)CCC[C@@H](NC(=O)[C@@H]2C[C@@H](F)CN2C(=O)Cn2nc(C(N)=O)c3ccccc32)C1` [Example 82, 1-{2-[(2S,4R)-2-((R)-3,3-Dimethyl-cyclohexylcarbamoyl)-4-fluoro-pyrrolidin-1-yl]-2-oxo-ethyl}-1H-indazole-3-carboxylic acid amide] reads 0.038 µM; that for `CC[C@H]1CCC[C@@H](NC(=O)[C@@H]2C[C@H]3C[C@H]3N2C(=O)Cn2nc(C(N)=O)c3cc(C)ncc32)C1` [Example 83, 1-{2-[(1R,3S,5R)-3-((1R,3S)-3-Ethyl-cyclohexylcarbamoyl)-2-aza-bicyclo[3.1.0]hex-2-yl]-2-oxo-ethyl}-5-methyl-1H-pyrazolo[3,4-c]pyridine-3-carboxylic acid amide], 0.05 µM.
Consider `CO[C@H]1[C@@H](C(=O)N[C@@H]2CCCC(C)(C)C2)N(C(=O)Cn2nc(C(N)=O)c3ccccc32)C[C@@H]1F` [Example 84, 1-{2-[(2S,3S,4S)-2-((R)-3,3-Dimethyl-cyclohexylcarbamoyl)-4-fluoro-3-methoxy-pyrrolidin-1-yl]-2-oxo-ethyl}-1H-indazole-3-carboxylic acid amide], for which the IC50 amounted to 0.06 µM.
Turning to `CO[C@H]1[C@@H](C(=O)N[C@H]2CCCC(C)(C)C2)N(C(=O)Cn2nc(C(N)=O)c3ccccc32)C[C@@H]1F` [Example 85, 1-{2-[(2S,3S,4S)-2-((S)-3,3-Dimethyl-cyclohexylcarbamoyl)-4-fluoro-3-methoxy-pyrrolidin-1-yl]-2-oxo-ethyl}-1H-indazole-3-carboxylic acid amide], the IC50 was found to be 0.585 µM.
Same read-out and setting: the result for `CC1(C)CCC[C@@H](NC(=O)[C@@H]2[C@@H]3C[C@@H]3CN2C(=O)Cn2nc(C(N)=O)c3ccncc32)C1` [Example 86, 1-{2-[(1R,2S,5S)-2-((R)-3,3-Dimethyl-cyclohexylcarbamoyl)-3-aza-bicyclo[3.1.0]hex-3-yl]-2-oxo-ethyl}-1H-pyrazolo[3,4-c]pyridine-3-carboxylic acid amide] reads 0.058 µM.
As for `CC1(C)CCC[C@H](NC(=O)[C@@H]2[C@@H]3C[C@@H]3CN2C(=O)Cn2nc(C(N)=O)c3ccncc32)C1` [Example 87, 1-{2-[(1R,2S,5S)-2-((S)-3,3-Dimethyl-cyclohexylcarbamoyl)-3-aza-bicyclo[3.1.0]hex-3-yl]-2-oxo-ethyl}-1H-pyrazolo[3,4-c]pyridine-3-carboxylic acid amide], the IC50 turned out to be 6.62 µM.
Regarding `CO[C@H]1CCC[C@@H](NC(=O)[C@@H]2C[C@H]3C[C@H]3N2C(=O)Cn2nc(C(C)=O)c3cc(OCc4ncccn4)ccc32)C1` [Example 94, (1R,3S,5R)-2-{2-[3-Acetyl-5-(pyrimidin-2-ylmethoxy)-indazol-1-yl]-acetyl}2-aza-bicyclo[3.1.0]hexane-3-carboxylic acid ((1R,3S)-3-methoxy-cyclohexyl)-amide], the IC50 is 0.138 µM.
On to `CC(=O)c1nn(CC(=O)N2[C@@H]3C[C@@H]3C[C@H]2C(=O)N[C@@H]2CCC[C@H](C(F)(F)F)C2)c2ccc(OCc3ncccn3)cc12` [Example 95, (1R,3S,5R)-2-{2-[3-Acetyl-5-(pyrimidin-2-ylmethoxy)-indazol-1-yl]-acetyl}-2-aza-bicyclo[3.1.0]hexane-3-carboxylic acid ((1R,3S)-3-trifluoromethyl-cyclohexyl)-amide], for which the IC50 worked out at 0.025 µM.
`CC(=O)c1nn(CC(=O)N2[C@@H]3C[C@@H]3C[C@H]2C(=O)N[C@@H]2CCC[C@H](C)C2)c2ccc(OCc3ncccn3)cc12` [Example 96, (1R,3S,5R)-2-{2-[3-Acetyl-5-(pyrimidin-2-ylmethoxy)-indazol-1-yl]-acetyl}-2-aza-bicyclo[3.1.0]hexane-3-carboxylic acid ((1R,3S)-3-methyl-cyclohexyl)-amide]: the IC50 amounted to 0.09 µM.
Still for that read-out and setting: the result for `CC(=O)c1nn(CC(=O)N2[C@@H]3C[C@@H]3C[C@H]2C(=O)NC2CC(C)(C)C2)c2ccc(OCc3ncccn3)cc12` [Example 103, (1R,3S,5R)-2-{2-[3-Acetyl-5-(pyrimidin-2-ylmethoxy)-indazol-1-yl]-acetyl}-2-aza-bicyclo[3.1.0]hexane-3-carboxylic acid (3,3-dimethyl-cyclobutyl)-amide] reads 0.036 µM.
In the case of `CC1(C)C[C@H](O)C[C@@H](NC(=O)[C@@H]2C[C@H]3C[C@H]3N2C(=O)Cn2nc(C(N)=O)c3ccccc32)C1` [Example 108, 1-{2-[(1R,3S,5R)-3-((1S,5S)-5-Hydroxy-3,3-dimethyl-cyclohexylcarbamoyl)-2-aza-bicyclo[3.1.0]hex-2-yl]-2-oxo-ethyl}-1H-indazole-3-carboxylic acid amide], the IC50 came to 2.23 µM.
In the case of `CC1(C)C[C@@H](O)C[C@H](NC(=O)[C@@H]2C[C@H]3C[C@H]3N2C(=O)Cn2nc(C(N)=O)c3ccccc32)C1` [Example 109, 1-{2-[(1R,3S,5R)-3-((1R,5R)-5-Hydroxy-3,3-dimethyl-cyclohexylcarbamoyl)-2-aza-bicyclo[3.1.0]hex-2-yl]-2-oxo-ethyl}-1H-indazole-3-carboxylic acid amide], the IC50 is 0.028 µM.

The same assay, now with this note: read-out: IC50.
For `CC1(C)CCC[C@@H](NC(=O)[C@@H]2C[C@@H](F)CN2C(=O)Cn2nc(C(N)=O)c3ccncc32)C1` [Example 71, 1-{2-[(2S,4R)-2-((R)-3,3-Dimethyl-cyclohexylcarbamoyl)-4-fluoro-pyrrolidin-1-yl]-2-oxo-ethyl}-1H-pyrazolo[3,4-c]pyridine-3-carboxylic acid amide], the half-inhibitory concentration (IC50) was determined as 0.041 µM.
Same read-out and setting: for `CC1=CC(NC(=O)[C@@H]2C[C@H]3C[C@H]3N2C(=O)Cn2nc(C(N)=O)c3ccccc32)CCC1` (stereo partly drawn) [Example 74, 1-{2-[(1R,3S,5R)-3-(3-Methyl-cyclohex-2-enylcarbamoyl)-2-aza-bicyclo[3.1.0]hex-2-yl]-2-oxo-ethyl}-1H-indazole-3-carboxylic acid amide] the value was 0.132 µM.
The same measure, in the same setting: the result for `CCc1cc2c(C(N)=O)nn(CC(=O)N3C[C@H](F)C[C@H]3C(=O)N[C@@H]3CCCC(C)(C)C3)c2cn1` [Example 81, 1-{2-[(2S,4R)-2-((R)-3,3-Dimethyl-cyclohexylcarbamoyl)-4-fluoro-pyrrolidin-1-yl]-2-oxo-ethyl}-5-ethyl-1H-pyrazolo[3,4-c]pyridine-3-carboxylic acid amide] reads 0.039 µM; that for `CC1(C)CCC[C@@H](NC(=O)[C@@H]2[C@@H]3C[C@@H]3CN2C(=O)Cn2nc(C(N)=O)c3ccccc32)C1` [Example 88, 1-{2-[(1R,2S,5S)-2-((R)-3,3-Dimethyl-cyclohexylcarbamoyl)-3-aza-bicyclo[3.1.0]hex-3-yl]-2-oxo-ethyl}-1H-indazole-3-carboxylic acid amide], 0.034 µM; that for `CC1(C)CCC[C@H](NC(=O)[C@@H]2[C@@H]3C[C@@H]3CN2C(=O)Cn2nc(C(N)=O)c3ccccc32)C1` [Example 89, 1-{2-[(1R,2S,5S)-2-((S)-3,3-Dimethyl-cyclohexylcarbamoyl)-3-aza-bicyclo[3.1.0]hex-3-yl]-2-oxo-ethyl}-1H-indazole-3-carboxylic acid amide], 2.13 µM.
Consider `CC(=O)c1nn(CC(=O)N2[C@@H]3C[C@@H]3C[C@H]2C(=O)N[C@H]2CCCC(C)(C)C2)c2ccc(OCc3ncccn3)cc12` [Example 97, (1R,3S,5R)-2-{2-[3-Acetyl-5-(pyrimidin-2-ylmethoxy)-indazol-1-yl]-acetyl}-2-aza-bicyclo[3.1.0]hexane-3-carboxylic acid ((S)-3,3-dimethyl-cyclohexyl)-amide], for which the concentration for half-maximal inhibition (IC50) turned out to be 0.341 µM.
With `CC(=O)c1nn(CC(=O)N2[C@@H]3C[C@@H]3C[C@H]2C(=O)N[C@@H]2CCCC(C)(C)C2)c2ccc(OCc3ncccn3)cc12` [Example 98, (1R,3S,5R)-2-{2-[3-Acetyl-5-(pyrimidin-2-ylmethoxy)-indazol-1-yl]-acetyl}-2-aza-bicyclo[3.1.0]hexane-3-carboxylic acid ((R)-3,3-dimethyl-cyclohexyl)-amide], the half-maximal inhibitory concentration (IC50) came out at 0.011 µM.
`CC(=O)c1nn(CC(=O)N2[C@@H]3C[C@@H]3C[C@H]2C(=O)NC2CC(F)(F)C2)c2ccc(OCc3ncccn3)cc12` [Example 104, (1R,3S,5R)-2-{2-[3-Acetyl-5-(pyrimidin-2-ylmethoxy)-indazol-1-yl]-acetyl}-2-aza-bicyclo[3.1.0]hexane-3-carboxylic acid (3,3-difluoro-cyclobutyl)-amide]: the 50% inhibitory concentration (IC50) was found to be 0.273 µM.
Regarding `CO[C@@H]1C[C@@H](NC(=O)[C@@H]2C[C@H]3C[C@H]3N2C(=O)Cn2nc(C(N)=O)c3ccccc32)CC(C)(C)C1` [Example 105, 1-{2-[(1R,3S,5R)-3-((1S,5S)-5-Methoxy-3,3-dimethyl-cyclohexylcarbamoyl)-2-aza-bicyclo[3.1.0]hex-2-yl]-2-oxo-ethyl}-1H-indazole-3-carboxylic acid amide], the IC50 was 0.225 µM.
As to `CO[C@H]1C[C@H](NC(=O)[C@@H]2C[C@H]3C[C@H]3N2C(=O)Cn2nc(C(N)=O)c3ccccc32)CC(C)(C)C1` [Example 106, 1-{2-[(1R,3S,5R)-3-((1R,5R)-5-Methoxy-3,3-dimethyl-cyclohexylcarbamoyl)-2-aza-bicyclo[3.1.0]hex-2-yl]-2-oxo-ethyl}-1H-indazole-3-carboxylic acid amide], the IC50 amounted to 0.018 µM.
The same measure, in the same setting: for `COC1CC(NC(=O)[C@@H]2C[C@H]3C[C@H]3N2C(=O)Cn2nc(C(N)=O)c3ccccc32)CC(C)(C)C1` (stereo partly drawn) [Example 107, 1-{2-[(1R,3S,5R)-3-(cis-5-Methoxy-3,3-dimethyl-cyclohexylcarbamoyl)-2-aza-bicyclo[3.1.0]hex-2-yl]-2-oxo-ethyl}-1H-indazole-3-carboxylic acid amide] the value was 0.467 µM.

(Values after patent US9487483B2, “Complement pathway modulators and uses thereof” (priority 2012, dated 2016).)
